The record followed here is patent EP0423221B1, “IMMUNOSUPPRESSIVE AGENTS” (THE UNIVERSITY OF SHEFFIELD, priority 1988, dated 1990).

Molecules are shown by their SMILES.

In data set [1] the test system is human mixed lymphocyte reaction. Description: human mixed lymphocyte reaction (inhibition of 3H-thymidine incorporation). It counts as cell-based. To be noted: for inhibition at 25 µM: Concentration of Solution 25 µM; for EC50: concentration which brings about 50% inhibition of ^3H-thymidine incorporation, read-out: Immunosuppressive activity ED50; for inhibition at 10 µM: Concentration of Solution 10 µM; for immunosuppressive activity compared with azathioprine: statement in words. From the text:
Fifteen of these compounds were screened for immunosuppressive activity by means of the human mixed lymphocyte reaction, which is well known and need not be further described here, the results of which are shown in Table 1.
In general terms: Dividing cells build labelled thymidine or BrdU into new DNA.

For `Cc1ccc2[nH]c(Sc3c([N+](=O)[O-])ncn3C)nc2c1` [Compound 2], in data set [1] (Homo sapiens, Lymphocyte), the inhibition at 25 µM turned out to be 86%.
Same read-out and setting: the figure for `Cn1cnc([N+](=O)[O-])c1Sc1nc2ccccc2s1` [Compound 9] is 27%; for `Cn1cnc([N+](=O)[O-])c1Sc1ccccn1` [Compound 15] it is 76%.
With `Cn1cnc([N+](=O)[O-])c1Sc1nc2cc(F)c(Cl)cc2[nH]1` [Compound 4], the inhibition at 50 µM in data set [1] (Homo sapiens, Lymphocyte, Concentration of Solution 50 µM) came to 59%.
Regarding `Cn1cnc([N+](=O)[O-])c1Sc1nc2ccccc2[nH]1` [Compound 1], the inhibition at 36 µM in data set [1] (Homo sapiens, Lymphocyte, Concentration of Solution 36 µM) was 98%.
`Cn1cnc([N+](=O)[O-])c1Sc1ccccc1C(=O)O` [Compound 13] gave an inhibition at 25 µM in data set [1] (Homo sapiens, Lymphocyte) of 34%.
The same measure, in the same setting: with `CCn1c(C)nc([N+](=O)[O-])c1Sc1nc(C)cc(C)n1` [Compound 18] the figure was 47%.
As for `Cn1cnc([N+](=O)[O-])c1Sc1ncnc2nc[nH]c12` [I (azathioprine), azathioprine, reference compound], in data set [1] (Homo sapiens, Lymphocyte), at 25 µM the inhibition was 79% and the EC50 was 7.9 µM. The “Toxicity LD25” value with lymphocytes (human) stood at 42.5. Also, the “Therapeutic index ED50/LD25” value in the data set with lymphocytes (ratio of toxicity and immunosuppressive activity) amounted to 5.38.
Regarding `Cn1cnc([N+](=O)[O-])c1Sc1ncc[nH]1` [Compound 21], in data set [1] (Homo sapiens, Lymphocyte), at 10 µM the inhibition was 89% and the EC50 was 2.8 µM. In data set [1], the “immunosuppressive activity compared with azathioprine” value is given as “substantially more immunosuppressive than azathioprine”. For the same compound, the “toxicity to lymphocytes compared with azathioprine” value in the data set with lymphocytes is given as “considerably less toxic to lymphocytes”.
The corresponding values for `Cn1ccnc1Sc1c([N+](=O)[O-])ncn1C` [Compound 22] are 82%, 3.15 µM, “substantially more immunosuppressive than azathioprine” and “considerably less toxic to lymphocytes”.
With `Cn1cnc([N+](=O)[O-])c1Sc1ncnc2[nH]c(O)nc12` [Compound 11], the EC50 in data set [1] (Homo sapiens, Lymphocyte) came to 24 µM. Besides, the “immunosuppressive activity compared with azathioprine” value in data set [1] is “less immunosuppressive than azathioprine”. Further, the “toxicity to lymphocytes compared with azathioprine” value in the data set with lymphocytes was “much less toxic to the lymphocytes”.
In data set [1] (Homo sapiens, Lymphocyte), `CCOC(=O)CSc1c([N+](=O)[O-])ncn1C` [Compound 30] returned an inhibition at 25 µM of 65%.
Take `COc1ccc(OC)c2[nH]c(Sc3c([N+](=O)[O-])ncn3C)nc12` [Compound 6]: 25 µM produced 41% inhibition in data set [1] (Homo sapiens, Lymphocyte).
Take `Cn1cnc([N+](=O)[O-])c1Sc1ncccn1` [Compound 16]: the inhibition at 25 µM in data set [1] (Homo sapiens, Lymphocyte) is 47%.
Same read-out and setting: with `Cn1cnc([N+](=O)[O-])c1Sc1nc2ccccc2o1` [Compound 8] the figure was 87%; with `COc1cc2nc(Sc3c([N+](=O)[O-])ncn3C)[nH]c2cc1OC` [Compound 5], 94%.
Regarding `Cn1cnc([N+](=O)[O-])c1Sc1nccc(O)n1` [Compound 19], the inhibition at 25 µM in data set [1] (Homo sapiens, Lymphocyte) stood at 29%.

Usually inhibition stands for the drop in the measured response relative to a control, in per cent. Low values mean a weak effect, high ones a strong effect.
